This note sets out measurements from ChEMBL document CHEMBL3600384, “Highly potent artemisinin-derived dimers and trimers: Synthesis and evaluation of their antimalarial, antileukemia and antiviral activities” (Bioorg Med Chem, 2015).

Structures are written as SMILES. Activity calls are given as the source filed them. No cut-off for these calls is given here.

One series has as its system Human betaherpesvirus 5. In words: Antiviral activity against Human cytomegalovirus AD169 expressing GFP infected in HFF assessed as inhibition of viral replication after 7 days. The class given is functional, organism-based.
Series [1] concerns CCRF-CEM. In words: Cytotoxicity against human CCRF-CEM cells assessed as cell viability after 72 hrs by resazurin assay. The class given is functional, cell-based.
Series [2] deals with CCRF-CEM. Briefly: Resistance index, ratio of IC50 for human CEM/ADR5000 cells to IC50 for human CCRF-CEM cells. Format: functional.
Series [3] in a line: Cytotoxicity against human CEM/ADR5000 cells assessed as cell viability after 72 hrs by resazurin assay. Format: functional, cell-based. The following applies: ADR5000, 72 h.
Series [4] relates to Plasmodium falciparum. Briefly: Antimalarial activity against Plasmodium falciparum 3D7 infected in human erythrocytes assessed as parasite growth inhibition after 72 hrs by SYBR Green I assay. Format: functional, organism-based. The conditions noted are these: 3D7, 72 h.
In series [5] the test system is Plasmodium falciparum. Briefly: Antimalarial activity against Plasmodium falciparum NF54 infected in human erythrocytes after 48 hrs by [3H]hypoxanthine incorporation assay. Format: functional, organism-based.
The subject of a further series is ADR5000. Briefly: Cytotoxicity against human CEM/ADR5000 cells assessed as cell viability at 400 uM after 72 hrs by resazurin assay. Format: functional, cell-based.
Series [6] can be described thus: Potency index, ratio of doxorubicin IC50 to compound IC50 for human CEM/ADR5000 cells. The class given is functional.
Series [7] in a line: Stability of the compound up to 56 degC. The class given is physicochemical.
Series [8] deals with HFF. Briefly: Cytotoxicity against HFF up to 10 uM by light microscopic analysis. Format: cell-based. The following applies: human.
Series [9] can be described thus: Stability of the compound in freezing/thawing condition. The class given is physicochemical.
In series [10] the test system is HFF. In words: Cytotoxicity against HFF up to 10 uM by fluorescence microscopic analysis. Format: cell-based. The following applies: human.
Setting [11] is: Human betaherpesvirus 5, AD169, 168 h, read-out: IC50.

Regarding `C[C@H]1[C@H](OC(=O)CCC(=O)NCC(O)CNC(=O)CCC(=O)O[C@@H]2O[C@@H]3O[C@@]4(C)CC[C@H]5[C@H](C)CC[C@@H]([C@H]2C)[C@@]35OO4)O[C@@H]2O[C@@]3(C)CC[C@H]4[C@H](C)CC[C@@H]1[C@@]24OO3` (stereo not given in full), in the series with Human betaherpesvirus 5 (setting [11]), the IC50 came to 2070 nM.

Regarding `COc1cccc2c1C(=O)c1c(O)c3c(c(O)c1C2=O)C[C@@](O)(C(=O)CO)C[C@@H]3O[C@H]1C[C@H](N)[C@H](O)[C@H](C)O1` [DOXORUBICIN], the IC50 with CCRF-CEM [1] amounted to 3 nM; in [3], 1610 nM. Further, the “Ratio IC50” value in the series with CCRF-CEM [2] came to 536.67.

Consider `C[C@H]1[C@H](OC(=O)CCC(=O)NCCCCCCCCNC(=O)CCC(=O)O[C@@H]2O[C@@H]3O[C@@]4(C)CC[C@H]5[C@H](C)CC[C@@H]([C@H]2C)[C@@]35OO4)O[C@@H]2O[C@@]3(C)CC[C@H]4[C@H](C)CC[C@@H]1[C@@]24OO3`, for which the IC50 in the series with Human betaherpesvirus 5 (setting [11]) is more than 10000 nM.

In the case of `C[C@H]1[C@H](OC(=O)CCC(=O)O[C@@H]2O[C@@H]3O[C@@]4(C)CC[C@H]5[C@H](C)CC[C@@H]([C@H]2C)[C@@]35OO4)O[C@@H]2O[C@@]3(C)CC[C@H]4[C@H](C)CC[C@@H]1[C@@]24OO3`, the IC50 was 2750 nM in the series with CCRF-CEM [1], 1040 nM in the series on Human betaherpesvirus 5 (setting [11]), 2.6 nM in the series with Plasmodium falciparum [4] and 2790 nM in series [3]. Moreover, the “Ratio IC50” value with CCRF-CEM [2] amounted to 1.01.

Take `C[C@H]1[C@H](OC(=O)CCC(=O)O)O[C@@H]2O[C@@]3(C)CC[C@H]4[C@H](C)CC[C@@H]1[C@@]24OO3` [ARTESUNATE]: the IC50 with CCRF-CEM [1] amounted to 70 nM; in the series with Human betaherpesvirus 5 (setting [11]), 3800 nM; with Plasmodium falciparum [4], 9 nM; in series [3], 190 nM. Further, in the series with CCRF-CEM [2], the “Ratio IC50” value is on record as 2.71.

Turning to `C[C@@H]1CC[C@H]2[C@@H](C)C(=O)O[C@@H]3O[C@@]4(C)CC[C@@H]1[C@]32OO4` [ARTEMISININ], the IC50 in the series on Human betaherpesvirus 5 (setting [11]) is more than 10000 nM. The “Ratio IC50” value with CCRF-CEM [2] amounted to 0.73.

As to `C[C@H]1[C@@H](CC(CO)C[C@H]2O[C@@H]3O[C@@]4(C)CC[C@H]5[C@H](C)CC[C@@H]([C@H]2C)[C@@]35OO4)O[C@@H]2O[C@@]3(C)CC[C@H]4[C@H](C)CC[C@@H]1[C@@]24OO3` (stereo not given in full), the IC50 in the series on CCRF-CEM [1] was determined as 20 nM; in the series with Plasmodium falciparum [4], 1.1 nM; in series [3] it was 50 nM; in the series on Plasmodium falciparum [5], 0.87 nM. Further, the “Ratio IC50” value in the series with CCRF-CEM [2] worked out at 2.5.

With `C[C@H]1[C@@H](CCCO)O[C@@H]2O[C@@]3(C)CC[C@H]4[C@H](C)CC[C@@H]1[C@@]24OO3`, the IC50 with CCRF-CEM [1] is 174000 nM; with Plasmodium falciparum [4], 11.6 nM. Also, the outcome in the series with ADR5000 was inactive.

Consider `C[C@H]1[C@@H](CCCOC(=O)C[C@H]2O[C@@H]3O[C@@]4(C)CC[C@H]5[C@H](C)CC[C@@H]([C@H]2C)[C@@]35OO4)O[C@@H]2O[C@@]3(C)CC[C@H]4[C@H](C)CC[C@@H]1[C@@]24OO3`, for which the IC50 in the series on CCRF-CEM [1] turned out to be 90 nM; in the series with Human betaherpesvirus 5 (setting [11]) it was 310 nM; in the series with Plasmodium falciparum [4], 2.6 nM; in [3] it was 200 nM. Also, the “Ratio IC50” value with CCRF-CEM [2] amounted to 2.22; in series [6], 3.

As to `Nc1nc2c(ncn2COC(CO)CO)c(=O)[nH]1` [GANCICLOVIR], the IC50 in the series with Human betaherpesvirus 5 (setting [11]) was 2600 nM.

As for `C[C@H]1[C@H](OC(=O)CCC(=O)OCC(C[C@H]2O[C@@H]3O[C@@]4(C)CC[C@H]5[C@H](C)CC[C@@H]([C@H]2C)[C@@]35OO4)C[C@H]2O[C@@H]3O[C@@]4(C)CC[C@H]5[C@H](C)CC[C@@H]([C@H]2C)[C@@]35OO4)O[C@@H]2O[C@@]3(C)CC[C@H]4[C@H](C)CC[C@@H]1[C@@]24OO3`, the IC50 turned out to be 2 nM in the series with CCRF-CEM [1], 40 nM in the series with Human betaherpesvirus 5 (setting [11]), 12.8 nM with Plasmodium falciparum [4] and 200 nM in series [3]. Besides, the Stability entry in series [7] and in [9] was “Stable” in each case. Besides, the Activity entry with HFF [8] and in the series on HFF [10] was “Non-toxic” in each case. The “Ratio IC50” value turned out to be 100 in the series with CCRF-CEM [2] and 3 in series [6].

On to `C[C@H]1[C@@H](O)O[C@@H]2O[C@@]3(C)CC[C@H]4[C@H](C)CC[C@@H]1[C@@]24OO3` [ARTENIMOL], for which the IC50 was 90 nM with CCRF-CEM [1], more than 10000 nM in the series on Human betaherpesvirus 5 (setting [11]), 2.5 nM in the series with Plasmodium falciparum [4] and 270 nM in series [3]. Further, the “Ratio IC50” value in the series on CCRF-CEM [2] is on record as 3.

In the case of `C[C@H]1[C@@H](OCC(C[C@H]2O[C@@H]3O[C@@]4(C)CC[C@H]5[C@H](C)CC[C@@H]([C@H]2C)[C@@]35OO4)C[C@H]2O[C@@H]3O[C@@]4(C)CC[C@H]5[C@H](C)CC[C@@H]([C@H]2C)[C@@]35OO4)O[C@@H]2O[C@@]3(C)CC[C@H]4[C@H](C)CC[C@@H]1[C@@]24OO3`, the IC50 with CCRF-CEM [1] is 2 nM; with Human betaherpesvirus 5, “ND(toxic)”; in the series on Plasmodium falciparum [4] it was 12.8 nM; in series [3], 490 nM. For the same molecule, the Activity result in the series on HFF [8] and in the series on HFF [10] was “Non-toxic” in each case. In addition, the figures for the “Ratio IC50” value (in the series on CCRF-CEM [2]; in [6]) were 245 and 3, respectively.
